System: Pou4f3 positive hair cells in cochlear sensory epithelium from P2 rats
Assay: Hair cell counts in rat organ of Corti explants
Assay type: cell-based
Conditions: rat OC explants, 4 days, apex/middle/base
Method: OC explants were isolated from postnatal day 2 (P2) Wistar rats, P0-P2 mice (Lgr5-GFP or Atoh1-nGFP mice). Dissection of the cochlea under a stereomicroscope (Nikon SMZ800, Japan) allowed OC separation from stria vascularis and modiolus, and the sensory epithelium was plated with hair cells facing up on Cell-Tak (Corning, United States)-coated transwell-clear inserts (6-well format, 0.4 μm pore, Corning, United States). Dissection medium was exchanged for 1.5 ml full otic medium supplemented with 10% FBS (Invitrogen) and 0.01% Ampicillin (Sigma), added under the insert membrane, maintaining the OC under a thin film of medium during culture at 37°C. 5-ethyl-2′-deoxyuridine (EdU, 5 μM, Life Technologies) was added directly in the medium when indicated. […]
Dividing cells were labeled with, 5-ethyl-2′-deoxyuridine (EdU) and detected with Click-it Plus kit (Life Technologies). […]
Image processing was performed with the open-source image processing software FIJI, version 2.0 ([Schindelin et al., 2012]). Hair cells were quantified by counting Pou4f3 or Myo7a positive cells of the organ of Corti at three random microscopic fields for each cochlear region (base, middle, and apex) covering in total at least 1,200 μm. The number of hair cells (IHCs and OHCs) is expressed as unit per 100 μm. […]

## COc1ccc2c(c1)N1CCC(C)(C)C1=CC(=O)[C@H]2NC(=O)[C@H](C)NC(=O)CCC(F)(F)F [CPD3]
  Region of OHC induction: limited to the apical region

— article PMC8414802, “Hair Cell Generation in Cochlear Culture Models Mediated by Novel γ-Secretase Inhibitors” (Frontiers in Cell and Developmental Biology, 2021)
